≈ marks a conversion by molar mass, not a printed value. Where “and” joins values, the source holds several entries; their conditions need not be identical. Equal values may be shown once.

Assay [1] deals with nitric oxide (NO) production by RAW 264.7 stimulated by LPS. In words: Anti-inflammatory activity: NO production by LPS-stimulated macrophages. The assay is classed as cell-based, Murine. The settings on record: Mus musculus, RAW264.7; LPS-stimulated RAW 264.7; average of four repetitions ± SEM. Here is the method: (§1) The anti-inflammatory activity of flavonoids was evaluated as their ability to decrease the production of signaling molecules that mediate inflammation, such as nitric oxide (NO), tumor necrosis factor (TNF-α), and interleukin 6 (IL-6), in LPS-stimulated macrophages.
(§2) The anti-inflammatory activity of the tested flavonoids was determined as the ability to reduce the production of nitric oxide (NO), tumor necrosis factor (TNF-α), and interleukin 6 (IL-6) by RAW 264.7 stimulated by LPS, as previously described.[39],[40] Briefly, 1 × 10^6 cells/mL was seeded into the 96-well plate (100 μL/well). After 48 h, LPS (100 ng/mL) and the samples (3–100 μM) were added to the MEM medium. After 24 h, the medium was mixed with Griess reagent (0.04 g/mL) at a 1:1 ratio. The absorbance was measured after 15 min at 540 nm. Cell viability was determined using the resazurin assay.

In assay [2] the test system is Staphylococcus aureus MRSA 9. In words: Modulation of antibiotic-resistant phenotype (flavonoid plus breakpoint concentration of antibiotic). The settings on record: MIC determined as IC70, three repetitions ± SEM. The assay is classed as cell-based. How it is done: To evaluate the ability to modulate bacterial resistance, the tested flavonoids themselves cannot exert antimicrobial activity; therefore, the nontoxic concentration was used, as indicated in Table S5. Clinically relevant antibiotics were selected at breakpoint concentrations for susceptibility testing according to the European Committee on Antimicrobial Susceptibility Testing (EUCAST, version 11.0). […] Flavonoids and their derivatives (from 1 μM to the highest nontoxic concentration) were used in combination with the breakpoint concentration of the antibiotics. After coincubation, the minimum inhibitory concentration (MIC) of flavonoids inhibiting the visible growth of bacteria was determined (Table 2).
(§3) Sensitization of multidrug-resistant clinical bacterial strains was performed according to ref[15]. Antibiotic cutoff concentration was chosen according to the European Committee on Antimicrobial Susceptibility Testing (EUCAST, Clinical breakpoints–bacteria, ver. 11.0). The 200 μM concentration of the derivatives was chosen as the highest test concentration. The absorbance detected at 600 nm was then used to estimate the number of viable cells after 24 h of incubation at 37 °C and 120 rpm.
(§4) Experiments were performed with the respective number of replicates indicated in each figure/table. MIC was determined as IC70. Both IC70 and IC50 values were calculated using the following nonlinear regression in the software GraphPad Prism: […]

The next assay relates to S. aureus CCM 4223. Description: Antibacterial activity, antibiotic-sensitive strain. Type of assay: cell-based. The settings on record: Staphylococcus aureus, CCM4223, three repetitions ± SEM.
The test system of assay [3] is tumor necrosis factor (TNF-α) production by RAW 264.7 stimulated by LPS. Description: Anti-inflammatory activity: TNF-α production by LPS-stimulated macrophages. The assay is classed as cell-based, Murine. The settings on record: Mus musculus, RAW264.7; LPS-stimulated RAW 264.7; average of four repetitions ± SEM; read-out: TNFα production IC50. Here is the method: as §1, §2
To determine TNF-α levels, cells were precultivated with the tested compounds for 24 h. After 2 h of incubation with LPS, the medium was diluted 1:10 with ELISA diluent. To determine the level of IL-6, cells were cultivated for 6 h with LPS and the tested compounds. Cytokine production was determined using an uncoated ELISA performed according to the manufacturer’s instructions.

Assay [4] relates to transmembrane efflux pumps. Description: Ethidium bromide accumulation assay. The assay is classed as cell-based, S. aureus MSSA 2. From the text: The application of antibiotics often leads to oxidative stress in bacteria, which triggers the efflux pump systems that contribute to antimicrobial resistance.[34] Therefore, modulation of the efflux system has been proposed as another plausible target of derivatives. The efflux pump inhibitor carbonyl cyanide 3-chlorophenylhydrazone (CCCP) was used as a comparator in our assay. Its action destroys the proton-motive force at the membrane so that the efflux pump cannot transport substrates out of the cell. One such universal substrate is ethidium bromide, the accumulation of which in the cell can be measured using fluorescence.
The accumulation assay was performed according to previously published methods with minor modifications.[15],[42] Briefly, a bacterial culture of S. aureus MSSA 2 cultured overnight in the presence of colistin (4 mg/L) to induce oxidative stress and activate efflux system[34] was diluted in PBS to OD600 nm = 0.6. The suspension was centrifuged (13,000 × g; 3 min), resuspended in fresh PBS, and distributed into the wells of a black 96-well microtiter plate (ThermoFisher Scientific). Samples were diluted with EtBr solution (4 μg/mL). 50 μL of the mixture was added to 50 μL of the bacterial suspension. The reaction was monitored using SpectraMax iD5Multi-Mode Microplate Reader (ex/em = 530/600 nm) every 60 s for 60 min.

The subject of assay [5] is human dermal fibroblasts (HDF). Description: Cytotoxicity (resazurin assay), fibroblasts. Type of assay: cell-based. The settings on record: Homo sapiens, Fibroblast, 72 h, read-out: HDF IC50 (concentration that halved the viability). How it is done:
The cytotoxicity of the prepared derivatives was evaluated by their ability to decrease the viability of immortalized human keratinocytes (HaCaT) and human dermal fibroblasts (HDF).
100 μL of cell suspension containing 10^5 cells/mL was pipetted into a 96-well plate. After 24 h incubation, the tested compounds were added in the concentration range 12.5–200 μM. After 72 h incubation, the cell viability was tested by standard resazurin assay.[41] Briefly, the cells were washed with PBS and incubated with 100 μL of resazurin solution (0.025 mg/mL) for 2 h. The fluorescence was measured at a wavelength of 560 nm excitation/590 nm emission.
For orientation: Resazurin is reduced to fluorescent resorufin, in cell work by metabolically active cells.

Assay [6] relates to Methicilin-Resistant S. aureus 331 Strain. In words: Mode of antimicrobial action with erythromycin, ermC-positive strain. The assay is classed as cell-based.
From the text: Erythromycin is a macrolide antibiotic that inhibits proteosynthesis by binding to the 50S subunit of the ribosome. In Staphylococcus species, resistance to erythromycin is associated with the presence of methyltransferases (encoded by erm genes) that alter the ribosomal target site. Another typical mechanism of resistance to erythromycin is the presence of an ATP-dependent efflux pump encoded by the msr(A) gene or a major facilitator superfamily (MFS) pump encoded by the lmrS gene. Both efflux pumps reduce the concentration of erythromycin in the cell below the therapeutic dose by transporting it across the membrane to the extracellular space. Another erythromycin resistance gene is the mph(C) gene, the product of which is a phosphotransferase that alters the structure of macrolide antibiotics. To elucidate the mechanism of erythromycin resistance modulation in S. aureus, further tests were performed with the strains MRSA 331 and MRSA 3596, which inactivate erythromycin via a single mechanism (ermC and ermA, respectively). […] Therefore, if the activity was not strain-specific, it would be necessary to consider the effect of the derivatives on this pump (Table 3).
as §3, §4

In the case of `O=c1cc(-c2ccc(O)c(O)c2)oc2c(Nc3ccc(F)cc3)c(O)cc(O)c12` [compound 11, 2-(3,4-Dihydroxyphenyl)-8-(4-fluoroanilino)-5,7-dihydroxy-4H–1-benzopyran-4-one], the IC50 in assay [1] is above 25 µM; in the assay with S. aureus CCM 4223, 42 ± 1.2 µM; in assay [3], 28.4 ± 0.2 µM; in assay [5], 51.9 ± 3.7 µM. Moreover, the “minimum inhibitory concentration (MIC) in the presence of erythromycin” value in assay [2] (erythromycin at breakpoint concentration 1 mg/L) is >25 ^note 4 μM. For the same compound, the “minimum inhibitory concentration (MIC) in the presence of gentamicin” value in assay [2] (gentamicin at breakpoint concentration 1 mg/L) is 7.9 µM and 7.9 ± 0.5 µM. Further, in assay [4] (compared with comparator CCCP, concentrations 25–100 μM), the “efflux inhibition (ethidium bromide accumulation), in words” value is on record as “higher activity than CCCP alone”. In addition, the “accumulation of ethidium bromide compared to 100 μM CCCP” value in assay [4] (compound at 25 μM, relative to CCCP (100 μM)) is “comparable to 8-(4-fluoroanilino) quercetin (5)”. Besides, the “MIC, erythromycin [1 mg/L] yes” value in assay [6] (MRSA 331 (ermC), with erythromycin 1 mg/L) was determined as 57.4 ± 0.2 µM (≈ 22.7 µg/mL). The “MIC, erythromycin [1 mg/L] no” value in assay [6] (MRSA 331 (ermC), without erythromycin) stood at 57.6 ± 0.2 µM (≈ 22.8 µg/mL). In addition, the “FIC (Fractional Inhibitory Concentration Index)” value in assay [6] (MRSA 331, with erythromycin) is 1.00 ± 0.01.

(Values after publication PMC11325505, “Nitrogen-Containing Flavonoids—Preparation and Biological Activity” (ACS Omega, 2024).)
